PubChem BioAssay AID1963422 (Molecular Pharmacology Branch, DTP, NCI, 2024)

Test system: 463943-066-T-J2-PDC complex spheroid growth
Assay: Anticancer human tumor 463943-066-T-J2-PDC patient-derived colon adenocarcinoma cell line growth inhibition [Asc]
Conditions: for viability, T/C: stronger effect = lower value
In short: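 Complex spheroids combining tumor cells with HUVEC endothelial cells and human MSCs, at 37 degrees C, 5% CO2; agents tested alone or combined, half-log dilutions from at or near clinical Cmax, or 10 microM if Cmax unknown.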
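Also: compound exposure lasted 7 days.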
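For viability, T/C in this document: 100% = DMSO vehicle control wells.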

C#Cc1c(F)ccc2cc(O)cc(-c3ncc4c(N5CC6CCC(C5)N6)nc(OCC56CCCN5CC(F)C6)nc4c3F)c12 (stereo unspecified) + CCN1C(C(=O)NC23CCC(C(=O)O)(CC2)CC3)C(c2cccc(Cl)c2F)C2(C(=O)Nc3cc(Cl)ccc32)C12CCCCC2
IC50 (curve of first compound, second compound 0.00949 µM): > 10 µM
IC50 (curve of first compound, second compound 0.03 µM): > 10 µM
IC50 (curve of first compound, second compound 0.0949 µM): > 10 µM
IC50 (curve of first compound, second compound 0.3 µM): > 10 µM
IC50 (curve of first compound, second compound 0.949 µM): > 10 µM
IC50 (curve of first compound, second compound 3 µM): > 10 µM
viability, T/C (second compound 0.00949 µM, first compound 0.0316 µM): 94.4%
viability, T/C (second compound 0.00949 µM, first compound 0.1 µM): 99.3%
viability, T/C (second compound 0.00949 µM, first compound 0.316 µM): 94.3%
viability, T/C (second compound 0.00949 µM, first compound 1 µM): 101%
viability, T/C (second compound 0.00949 µM, first compound 3.16 µM): 108%
viability, T/C (second compound 0.00949 µM, first compound 10 µM): 88.3%
viability, T/C (second compound 0.03 µM, first compound 0.0316 µM): 102%
viability, T/C (second compound 0.03 µM, first compound 0.1 µM): 90.5%
viability, T/C (second compound 0.03 µM, first compound 0.316 µM): 94.1%
viability, T/C (second compound 0.03 µM, first compound 1 µM): 101%
viability, T/C (second compound 0.03 µM, first compound 3.16 µM): 103%
viability, T/C (second compound 0.03 µM, first compound 10 µM): 82.5%
viability, T/C (second compound 0.0949 µM, first compound 0.0316 µM): 91.5%
viability, T/C (second compound 0.0949 µM, first compound 0.1 µM): 88.8%
viability, T/C (second compound 0.0949 µM, first compound 0.316 µM): 94.2%
viability, T/C (second compound 0.0949 µM, first compound 1 µM): 93%
viability, T/C (second compound 0.0949 µM, first compound 3.16 µM): 91.7%
viability, T/C (second compound 0.0949 µM, first compound 10 µM): 94.1%
viability, T/C (second compound 0.3 µM, first compound 0.0316 µM): 88.4%
viability, T/C (second compound 0.3 µM, first compound 0.1 µM): 81.6%
viability, T/C (second compound 0.3 µM, first compound 0.316 µM): 87%
viability, T/C (second compound 0.3 µM, first compound 1 µM): 83%
viability, T/C (second compound 0.3 µM, first compound 3.16 µM): 83.1%
viability, T/C (second compound 0.3 µM, first compound 10 µM): 85.4%
viability, T/C (second compound 0.949 µM, first compound 0.0316 µM): 74%
viability, T/C (second compound 0.949 µM, first compound 0.1 µM): 73%
viability, T/C (second compound 0.949 µM, first compound 0.316 µM): 78.8%
viability, T/C (second compound 0.949 µM, first compound 1 µM): 77.9%
viability, T/C (second compound 0.949 µM, first compound 3.16 µM): 75.3%
viability, T/C (second compound 0.949 µM, first compound 10 µM): 71.2%
viability, T/C (second compound 3 µM, first compound 0.0316 µM): 70%
viability, T/C (second compound 3 µM, first compound 0.1 µM): 71.8%
viability, T/C (second compound 3 µM, first compound 0.316 µM): 70.5%
viability, T/C (second compound 3 µM, first compound 1 µM): 73.3%
viability, T/C (second compound 3 µM, first compound 3.16 µM): 72.1%
viability, T/C (second compound 3 µM, first compound 10 µM): 67.6%

Cc1c(S(C)(=O)=O)c(-c2cc(F)cc(N3CCN(c4ccc(NS(=O)(=O)c5ccc(NC(CCN6CCC(C(=O)OCCCP(=O)(O)O)CC6)CSc6ccccc6)c(S(=O)(=O)C(F)(F)F)c5)cc4)CC3)c2)c(-c2ccc(Cl)cc2)n1C(C)C (stereo unspecified)
viability, T/C (compound 0.0316 µM): 96.2% [middle of 7 runs]
viability, T/C (compound 0.1 µM): 94.8% [middle of 7 runs]
viability, T/C (compound 0.316 µM): 87.8% [middle of 7 runs]
viability, T/C (compound 1 µM): 78% [middle of 7 runs]
viability, T/C (compound 3.16 µM): 62.6% [middle of 7 runs]
viability, T/C (compound 10 µM): 56.5% [middle of 7 runs]
IC50 (compound alone, run of 11/07/2022): > 10 µM

CNC(C)C(=O)NC1CN(S(=O)(=O)c2cccc(S(=O)(=O)N3CCC4CCC(C(=O)NC(c5ccccc5)c5ccccc5)N4C(=O)C(NC(=O)C(C)NC)C3)c2)CCC2CCC(C(=O)NC(c3ccccc3)c3ccccc3)N2C1=O (stereo unspecified) + Cc1c(S(C)(=O)=O)c(-c2cc(F)cc(N3CCN(c4ccc(NS(=O)(=O)c5ccc(NC(CCN6CCC(C(=O)OCCCP(=O)(O)O)CC6)CSc6ccccc6)c(S(=O)(=O)C(F)(F)F)c5)cc4)CC3)c2)c(-c2ccc(Cl)cc2)n1C(C)C
IC50 (curve of first compound, second compound 0.0316 µM): > 1 µM
IC50 (curve of first compound, second compound 0.1 µM): > 1 µM
IC50 (curve of first compound, second compound 0.316 µM): > 1 µM
IC50 (curve of first compound, second compound 1 µM): > 1 µM
IC50 (curve of first compound, second compound 3.16 µM): > 1 µM
IC50 (curve of first compound, second compound 10 µM): 0.368 µM
viability, T/C (second compound 0.0316 µM, first compound 0.00316 µM): 99.7%
viability, T/C (second compound 0.0316 µM, first compound 0.01 µM): 97.5%
viability, T/C (second compound 0.0316 µM, first compound 0.0316 µM): 97.2%
viability, T/C (second compound 0.0316 µM, first compound 0.1 µM): 99.9%
viability, T/C (second compound 0.0316 µM, first compound 0.316 µM): 97.6%
viability, T/C (second compound 0.0316 µM, first compound 1 µM): 80.7%
viability, T/C (second compound 0.1 µM, first compound 0.00316 µM): 100%
viability, T/C (second compound 0.1 µM, first compound 0.01 µM): 91.6%
viability, T/C (second compound 0.1 µM, first compound 0.0316 µM): 96.6%
viability, T/C (second compound 0.1 µM, first compound 0.1 µM): 94.4%
viability, T/C (second compound 0.1 µM, first compound 0.316 µM): 98.8%
viability, T/C (second compound 0.1 µM, first compound 1 µM): 74%
viability, T/C (second compound 0.316 µM, first compound 0.00316 µM): 88.6%
viability, T/C (second compound 0.316 µM, first compound 0.01 µM): 89.3%
viability, T/C (second compound 0.316 µM, first compound 0.0316 µM): 88.2%
viability, T/C (second compound 0.316 µM, first compound 0.1 µM): 87.4%
viability, T/C (second compound 0.316 µM, first compound 0.316 µM): 93.2%
viability, T/C (second compound 0.316 µM, first compound 1 µM): 70.6%
viability, T/C (second compound 1 µM, first compound 0.00316 µM): 82.8%
viability, T/C (second compound 1 µM, first compound 0.01 µM): 77%
viability, T/C (second compound 1 µM, first compound 0.0316 µM): 77.8%
viability, T/C (second compound 1 µM, first compound 0.1 µM): 83.8%
viability, T/C (second compound 1 µM, first compound 0.316 µM): 76.8%
viability, T/C (second compound 1 µM, first compound 1 µM): 67.2%
viability, T/C (second compound 3.16 µM, first compound 0.00316 µM): 65.8%
viability, T/C (second compound 3.16 µM, first compound 0.01 µM): 77.3%
viability, T/C (second compound 3.16 µM, first compound 0.0316 µM): 66%
viability, T/C (second compound 3.16 µM, first compound 0.1 µM): 68.9%
viability, T/C (second compound 3.16 µM, first compound 0.316 µM): 70.7%
viability, T/C (second compound 3.16 µM, first compound 1 µM): 48.2%
viability, T/C (second compound 10 µM, first compound 0.00316 µM): 52.3%
viability, T/C (second compound 10 µM, first compound 0.01 µM): 49.5%
viability, T/C (second compound 10 µM, first compound 0.0316 µM): 52%
viability, T/C (second compound 10 µM, first compound 0.1 µM): 51.3%
viability, T/C (second compound 10 µM, first compound 0.316 µM): 52.5%
viability, T/C (second compound 10 µM, first compound 1 µM): 40.8%
